Experimental findings from patent publication US20260250289A1, “BICYCLIC HETEROCYCLES AND THEIR USE AS WRN INHIBITORS” (Novartis AG, priority 2022, published 2026) are described below.

Experiment [1] deals with T1, WRN helicase (aa N517-P1238) (Homo sapiens, UniProt Q14191).
T1 construct: The core helicase motif of the WRN protein (aa N517-P1238) was produced for this assay; His (N); ZZ (N); 3C protease cleavage site (N); made in house; host or cells: Sf21 insect cells (baculovirus; virus and BIICs made in SF9)
The experiment is described as follows: WRN ATPase assay (DNA dependent ATP hydrolysis, ADP-Glo). It is filed as biochemical. The conditions noted are these: 3 hours pre-incubation, 300 micromolar ATP, FLAP26 DNA; geometric mean of at least 2. The source says:
An ATPase assay was set up to measure the DNA dependent ATP hydrolysis activity of WRN helicase. This assay was used also to assess the inhibition properties of compounds of the invention on DNA dependent WRN ATPase activity.
The core helicase motif of the WRN protein (aa N517-P1238) was produced for this assay (protein production as described above). […] The ADP-Glo assay kit (Promega, Madison, WI) allowing the quantification of ADP produced in ATP hydrolysis reactions was used for setting up this assay.
Time course experiments were first performed in order to determine the best enzymatic assay conditions (including buffer conditions, reaction time and concentrations of protein, ATP and DNA substrates). A typical reaction consists of 10 nM WRN protein, 0.2 nM FLAP26, and 300 micromolar ATP in the following assay buffer: 30 mM Tris pH7.5, 2 mM MgCl2, 0.02% BSA, 50 mM NaCl, 0.1% pluronic F127 prepared in DNAse free water.
To evaluate the inhibition properties of compounds of the invention, serial dilutions were prepared in DMSO (10 half log dilutions from a 10 mM DMSO solution). […] The reaction was stopped with the addition of 5 microliters of the first ADP-Glo reagent and incubated for one hour to remove the excess amount of ATP. Afterwards, 10 microliters of ATP detection reagent was added and incubated for an additional hour before reading. Luminescence output was recorded using Tecan 1000 reader, with 5 minutes delay before reading. Each concentration of compound was tested in duplicates in the assay plate.
Following normalization of activity values for the wells to % inhibition (% inhibition=[(high control-sample)/(high control-low control)]×100), IC50 fitting was carried out from the duplicate determinations present on each plate according to [4]. Data analysis can also be carried out using commercially available software designed to derive IC50 values using 4-parameter fits (e.g. GraphPad Prism, XL fit). The reported IC50 values are the geometrical means of at least 2 independent replicates.
Background: In ADP-Glo the light output rises with the ADP produced.

A further experiment has as its system DLD1-WRN-KO cells. The experiment is described as follows: Proliferation assay DLD1-WRN-KO (CellTiterGlo, off-target effects). The class given is cell-based. Particulars: 96 hours, geometric mean of at least 2. As for the experimental part: The WRN-knockdown insensitive colon carcinoma cell line DLD-1 (RRID: CVCL_0248) was obtained from the Korean Cell Line Bank (KCLB), and used to generate a derivative in which the endogenous WRN gene copies were knocked out by CRISPR-mediated editing using standard CRISPR methods. The resulting cell line, DLD1-WRN-KO, was used to assess potential off-target compound effects. […]
Three replicate plates were prepared for each compound treatment condition. In addition, one plate (termed “day 0”) was prepared to quantify the number of viable cells at the time of compound addition. Following overnight incubation at 37° C. in a humidified 5% CO2 atmosphere, eight 3-fold serial dilutions of a given compound stock (obtained at a concentration of 10 mM in DMSO and stored at 4° C.) were dispensed directly into each of the triplicate assay plates using a HP 300D non-contact Digital Dispenser (TECAN). The final concentration of DMSO was normalized to 0.1% in all wells. 96 hours after compound addition, cellular ATP levels as a surrogate for cell viability was assessed following addition of 50 microliters CellTiterGlo (Promega Cat #G7573) reagent and luminescence quantification on a MPLEX multi-mode plate-reader (TECAN) following a 10 minute incubation at room temperature. The number of viable cells in the “day 0” plate were quantified identically on the day of compound addition.
For data analysis, the assay background signal that was determined in wells containing medium, but no cells, was subtracted from all other data points prior to further calculations. The extent of growth inhibition and potential cell kill was assessed by comparing the ATP levels (measured using CellTiterGlo, Promega) in compound-treated cells with those present at the time of compound addition. […] 100%, 0% and −100% signify absence of growth inhibition, growth stasis, and complete cell kill, respectively. Compound concentrations leading to half-maximal growth inhibition (GI50) and residual cell viability at the highest tested compound concentration (Data (cmax), expressed in percent) were routinely calculated. Data analysis can also be carried out using commercially available software designed to derive IC50 values using 4-parameter fits (e.g. GraphPad Prism, XL fit). The reported GI50 values are the geometrical means of at least 2 independent replicates.
(In general: Cellular ATP, detected with luciferase, serves as a proxy for viable cell number.)

Bounds are passed on as bounds.

T1 sequence (Q14191 517-1238): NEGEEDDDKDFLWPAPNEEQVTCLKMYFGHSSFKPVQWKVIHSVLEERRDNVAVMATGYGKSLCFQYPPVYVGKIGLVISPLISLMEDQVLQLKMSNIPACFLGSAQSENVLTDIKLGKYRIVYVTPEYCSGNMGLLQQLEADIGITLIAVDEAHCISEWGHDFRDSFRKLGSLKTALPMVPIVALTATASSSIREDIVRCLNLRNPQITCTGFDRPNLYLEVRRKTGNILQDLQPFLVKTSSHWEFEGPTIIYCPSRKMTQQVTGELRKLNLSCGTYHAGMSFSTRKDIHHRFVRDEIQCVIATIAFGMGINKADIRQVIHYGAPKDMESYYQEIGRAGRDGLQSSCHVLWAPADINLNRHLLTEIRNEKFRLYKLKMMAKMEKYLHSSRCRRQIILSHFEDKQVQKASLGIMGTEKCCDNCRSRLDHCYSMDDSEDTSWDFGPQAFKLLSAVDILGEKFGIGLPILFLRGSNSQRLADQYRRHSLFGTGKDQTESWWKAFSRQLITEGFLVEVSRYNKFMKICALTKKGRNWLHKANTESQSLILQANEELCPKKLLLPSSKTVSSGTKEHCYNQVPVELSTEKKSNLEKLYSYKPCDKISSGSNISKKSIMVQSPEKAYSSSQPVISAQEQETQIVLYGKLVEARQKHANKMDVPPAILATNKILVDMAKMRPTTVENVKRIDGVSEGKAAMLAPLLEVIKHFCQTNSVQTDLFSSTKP

In turn, `CC(=O)N1CCN(c2nc3n(CC(=O)Nc4ccc(Cl)cc4)c(C)c(N4CCN(C(=O)c5[nH]c(=O)[nH]c(=O)c5N)CC4)c(=O)n3n2)CC1` [Example 10, 2-(2-(4-acetylpiperazin-1-yl)-6-(4-(5-amino-2,6-dioxo-1,2,3,6-tetrahydropyrimidine-4-carbonyl)piperazin-1-yl)-5-methyl-7-oxo-[1,2,4]triazolo[1,5-a]pyrimidin-4(7H)-yl)-N-(4-chlorophenyl)acetamide] displayed an IC50 in experiment [1] of 90 nM. This compound showed a GI50 with DLD1-WRN-KO cells of over 10000 nM.
The like results for `Cc1c(N2CCN(C(=O)c3n[nH]c4ccccc34)CC2)c(=O)n2nc(C3=CCOCC3)nc2n1CC(=O)Nc1ccc(C(F)(F)F)cc1` [Example 154, 2-(6-(4-(1H-indazole-3-carbonyl)piperazin-1-yl)-2-(3,6-dihydro-2H-pyran-4-yl)-5-methyl-7-oxo-[1,2,4]triazolo[1,5-a]pyrimidin-4(7H)-yl)-N-(4-(trifluoromethyl)phenyl)acetamide] were, in that order, 100 nM and 8000 nM.
The like results for `CC(=O)N1CCN(c2nc3n(CC(=O)Nc4ccc(Cl)cc4)c(C)c(N4CCN(C(=O)c5nc[nH]c5C#N)CC4)c(=O)n3n2)CC1` [Example 7, 2-(2-(4-acetylpiperazin-1-yl)-6-(4-(5-cyano-1H-imidazole-4-carbonyl)piperazin-1-yl)-5-methyl-7-oxo-[1,2,4]triazolo[1,5-a]pyrimidin-4(7H)-yl)-N-(4-chlorophenyl)acetamide] were, in that order, 40 nM and over 10000 nM.
The like results for `CCOC(=O)C#Cc1nc2n(CC(=O)Nc3ccc(C(F)(F)F)cc3)c(C)c(N3CCN(C(C)=O)CC3)c(=O)n2n1` [Example 116, ethyl 3-(6-(4-acetylpiperazin-1-yl)-5-methyl-7-oxo-4-(2-oxo-2-((4-(trifluoromethyl)phenyl)amino)ethyl)-4,7-dihydro-[1,2,4]triazolo[1,5-a]pyrimidin-2-yl)propiolate] were, in that order, 500 nM and 5000 nM.
Regarding `CC(=O)N1CCN(c2c(C)n(CC(=O)Nc3ccc(Cl)c(Cl)c3)c3nc(C4=CCN(C(=O)OC(C)(C)C)CC4)nn3c2=O)CC1` [Example 75, tert-butyl 4-(6-(4-acetylpiperazin-1-yl)-4-(2-((3,4-dichlorophenyl)amino)-2-oxoethyl)-5-methyl-7-oxo-4,7-dihydro-[1,2,4]triazolo[1,5-a]pyrimidin-2-yl)-5,6-dihydropyridine-1(2H)-carboxylate], the concentration for half-maximal inhibition (IC50) in experiment [1] turned out to be 200 nM. Besides, the GI50 in the experiment on DLD1-WRN-KO cells stood at 900 nM.
Compound `CC(=O)N1CCN(c2nc3n(CC(=O)Nc4ccc(Cl)cc4)c(C)c(N4CCN(C(=O)c5cnon5)CC4)c(=O)n3n2)CC1` [Example 9, 2-(6-(4-(1,2,5-oxadiazole-3-carbonyl)piperazin-1-yl)-2-(4-acetylpiperazin-1-yl)-5-methyl-7-oxo-[1,2,4]triazolo[1,5-a]pyrimidin-4(7H)-yl)-N-(4-chlorophenyl)acetamide] returned an IC50 in experiment [1] of 80 nM. In the experiment on DLD1-WRN-KO cells, this compound returned a GI50 of over 10000 nM.
The like results for `CC(=O)N1CCN(c2c(C)n(CC(=O)Nc3ccc(Cl)c(Cl)c3)c3nc(C4=CCN(C(=O)OC5CC/C=C/CCC5)CC4)nn3c2=O)CC1` (stereo not drawn) [Example 93, (E)-cyclooct-4-en-1-yl 4-(6-(4-acetylpiperazin-1-yl)-4-(2-((3,4-dichlorophenyl)amino)-2-oxoethyl)-5-methyl-7-oxo-4,7-dihydro-[1,2,4]triazolo[1,5-a]pyrimidin-2-yl)-3,6-dihydropyridine-1(2H)-carboxylate] were, in that order, 700 nM and 5000 nM.
The like results for `CC(=O)N1CCN(c2nc3n(CC(=O)Nc4ccc(Cl)cc4)c(C)c(N4CCN(C(=O)c5n[nH]c(=O)[nH]5)CC4)c(=O)n3n2)CC1` [Example 8, 2-(2-(4-acetylpiperazin-1-yl)-5-methyl-7-oxo-6-(4-(5-oxo-4,5-dihydro-1H-1,2,4-triazole-3-carbonyl)piperazin-1-yl)-[1,2,4]triazolo[1,5-a]pyrimidin-4(7H)-yl)-N-(4-chlorophenyl)acetamide] were, in that order, 50 nM and over 10000 nM.
The like results for `COc1cc(F)cc(C(=O)N2CCN(c3c(C)n(CC(=O)Nc4ccc(C(F)(F)F)cc4)c4nc(C5=CCOCC5)nn4c3=O)CC2)c1N` [Example 153, 2-(6-(4-(2-amino-5-fluoro-3-methoxybenzoyl)piperazin-1-yl)-2-(3,6-dihydro-2H-pyran-4-yl)-5-methyl-7-oxo-[1,2,4]triazolo[1,5-a]pyrimidin-4(7H)-yl)-N-(4-(trifluoromethyl)phenyl)acetamide] were, in that order, 100 nM and 5000 nM.
With `CC(=O)N1CCN(c2c(C)n(CC(=O)Nc3ccc(C(F)(F)F)cc3)c3nc(N4CCCCC4)nn3c2=O)CC1` [Example 111, 2-(6-(4-acetylpiperazin-1-yl)-5-methyl-7-oxo-2-(piperidin-1-yl)-[1,2,4]triazolo[1,5-a]pyrimidin-4(7H)-yl)-N-(4-(trifluoromethyl)phenyl)acetamide], the IC50 in experiment [1] is 200 nM. The GI50 with DLD1-WRN-KO cells is over 10000 nM.
`CC(=O)N1CCC(c2c(C)n(CC(=O)Nc3ccc(C(F)(F)F)cc3)c3nc(-c4ccccc4)nn3c2=O)CC1` [Example 143, 2-(6-(1-acetylpiperidin-4-yl)-5-methyl-7-oxo-2-phenyl-[1,2,4]triazolo[1,5-a]pyrimidin-4(7H)-yl)-N-(4-(trifluoromethyl)phenyl) acetamide]: the GI50 in the experiment with DLD1-WRN-KO cells was over 10000 nM.
In experiment [1], `CC(=O)N1CCN(c2c(C)n(CC(=O)Nc3ccc(Cl)c(Cl)c3)c3nc(-c4ccc(CN(C)C(=O)CCN=[N+]=[N-])cc4)nn3c2=O)CC1` [Example 86, N-(4-(6-(4-acetylpiperazin-1-yl)-4-(2-((3,4-dichlorophenyl)amino)-2-oxoethyl)-5-methyl-7-oxo-4,7-dihydro-[1,2,4]triazolo[1,5-a]pyrimidin-2-yl)benzyl)-3-azido-N-methylpropanamide] gave an IC50 of 70 nM. In the experiment on DLD1-WRN-KO cells, this compound had a GI50 of over 10000 nM.
The like results for `CC(=O)N1CCN(c2c(C)n(CC(=O)Nc3ccc(Cl)c(C(F)(F)F)c3)c3nc(C4=CCN(C(=O)OC(C)(C)C)CC4)nn3c2=O)CC1` [Example 74, tert-butyl 4-(6-(4-acetylpiperazin-1-yl)-4-(2-((4-chloro-3-(trifluoromethyl)phenyl)amino)-2-oxoethyl)-5-methyl-7-oxo-4,7-dihydro-[1,2,4]triazolo[1,5-a]pyrimidin-2-yl)-5,6-dihydropyridine-1(2H)-carboxylate] were, in that order, 200 nM and 600 nM.
The like results for `CC(=O)N1CCN(c2c(C)n(CC(=O)Nc3ccc(C(F)(F)F)cc3)c3nc(C4=CCC5(CCO5)CC4)nn3c2=O)CC1` (stereo not drawn) [Example 117, 2-(6-(4-acetylpiperazin-1-yl)-5-methyl-7-oxo-2-(1-oxaspiro[3.5]non-6-en-7-yl)-[1,2,4]triazolo[1,5-a]pyrimidin-4(7H)-yl)-N-(4-(trifluoromethyl)phenyl)acetamide] were, in that order, 600 nM and over 10000 nM.

The term IC50 denotes the concentration that gives 50% inhibition. Higher therefore signals lower potency. Broadly, the GI50 is the concentration that inhibits growth by half. Low values mean greater sensitivity of the cells, high ones lower sensitivity of the cells.
